Assay results taken from patent US11098041B2 (Merck Patent GmbH, priority 2014, dated 2021).

Tests used:
[1] = biological target: BTK C481S (His-TEV-hsBTK(328-659)(C481S)) (Homo sapiens (Human), UniProt Q06187, C481S); test: Assay B: microfluidic off-chip mobility shift assay against BTK C481S enzyme; format: biochemical; conditions: BTK C481S mutant
In short: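 Substrate-to-phosphopeptide conversion quantified by microfluidic mobility shift with laser-induced fluorescence; IC50 and efficacy from log[inhibitor] vs. % activity.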

full-length human BTK = full-length human BTK (Homo sapiens (Human), UniProt Q06187); test: Assay A: microfluidic off-chip mobility shift assay against BTK enzyme; format: biochemical
Sequence of full-length human BTK (Q06187 whole entry): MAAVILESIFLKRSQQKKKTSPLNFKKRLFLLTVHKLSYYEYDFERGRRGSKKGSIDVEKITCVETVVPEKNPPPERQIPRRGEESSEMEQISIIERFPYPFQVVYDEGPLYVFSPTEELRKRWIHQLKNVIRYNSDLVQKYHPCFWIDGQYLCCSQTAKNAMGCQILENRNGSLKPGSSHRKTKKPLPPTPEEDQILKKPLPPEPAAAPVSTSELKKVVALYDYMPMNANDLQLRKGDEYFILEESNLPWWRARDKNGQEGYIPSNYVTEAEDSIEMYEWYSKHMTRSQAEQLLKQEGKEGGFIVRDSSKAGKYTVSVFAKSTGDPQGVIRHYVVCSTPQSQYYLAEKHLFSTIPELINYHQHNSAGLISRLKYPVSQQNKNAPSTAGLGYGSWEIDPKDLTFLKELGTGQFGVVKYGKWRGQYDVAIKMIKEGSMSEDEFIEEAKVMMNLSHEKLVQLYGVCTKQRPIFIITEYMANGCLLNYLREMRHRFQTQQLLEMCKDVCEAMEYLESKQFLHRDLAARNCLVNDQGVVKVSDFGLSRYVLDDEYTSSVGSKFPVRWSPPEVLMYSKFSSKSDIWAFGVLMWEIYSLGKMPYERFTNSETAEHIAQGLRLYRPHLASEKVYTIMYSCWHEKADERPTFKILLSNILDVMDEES

[2] = test system: anti-IgM-induced expression of CD69 on CD19 positive cells (B cells) in human PBMCs; test: Assay C: PBMC IC50 assay (anti-IgM-induced CD69 expression); format: cell-based; conditions: anti-IgM stimulation
In short: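 Freshly isolated human PBMCs (2.5×10^5/well) pretreated 1 h with compound, then stimulated overnight (~16-18 h) with goat F(ab′)2 anti-human IgM. CD69 on CD19+ B cells measured by flow cytometry; IC50 from percentage CD69+ B cells versus concentration.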

Sequence of BTK C481S (His-TEV-hsBTK(328-659)(C481S)) (Q06187 328-659 C481S): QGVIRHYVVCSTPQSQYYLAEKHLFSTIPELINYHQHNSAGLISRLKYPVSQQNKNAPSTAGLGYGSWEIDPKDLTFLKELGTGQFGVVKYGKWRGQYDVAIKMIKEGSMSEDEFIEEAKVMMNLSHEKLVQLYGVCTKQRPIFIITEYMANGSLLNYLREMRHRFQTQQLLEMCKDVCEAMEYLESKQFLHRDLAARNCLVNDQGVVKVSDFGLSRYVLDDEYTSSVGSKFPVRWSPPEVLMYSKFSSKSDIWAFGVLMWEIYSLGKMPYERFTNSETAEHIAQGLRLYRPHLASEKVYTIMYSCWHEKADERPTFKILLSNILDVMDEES

With `Cn1cc(-c2nc3c(-c4cc(F)cc(N5CCn6c(cc7c6CC(C)(C)C7)C5=O)c4CO)ccnc3[nH]2)cn1` [Example 10, 2-(5-fluoro-2-(hydroxymethyl)-3-(2-(1-methyl-1H-pyrazol-4-yl)-3H-imidazo[4,5-b]pyridin-7-yl)phenyl)-7,7-dimethyl-2,3,4,6,7,8-hexahydro-1H-cyclopenta[4,5]pyrrolo[1,2-a]pyrazin-1-one] the IC50 [1] was < 100 nM, the IC50 (full-length human BTK) was < 100 nM and the IC50 [2] was < 100 nM.

In the case of `O=C1c2c(F)cc(C3CC3)cc2OCCN1c1cccc(-c2ccnc3[nH]c(-c4cccnc4)nc23)c1CO` [Example 2, 8-Cyclopropyl-6-fluoro-4-[2-(hydroxymethyl)-3-[2-(pyridin-3-yl)-3H-imidazo[4,5-b]pyridin-7-yl]phenyl]-2,3,4,5-tetrahydro-1,4-benzoxazepin-5-one], the IC50 [1] is reported as < 100 nM, the IC50 (full-length human BTK) is reported as < 100 nM and the IC50 [2] is reported as 1000 to 5000 nM.

For `CN1CCN(Cc2ccc(-c3nc4c(-c5cccc(N6CCOc7cc(C8CC8)cc(F)c7C6=O)c5CO)ccnc4[nH]3)nc2)CC1` [Example 35, 8-Cyclopropyl-6-fluoro-4-[2-(hydroxymethyl)-3-(2-[5-[(4-methylpiperazin-1-yl)methyl]pyridin-2-yl]-3H-imidazo[4,5-b]pyridin-7-yl)phenyl]-2,3,4,5-tetrahydro-1,4-benzoxazepin-5-one], the IC50 [1] was < 100 nM, the IC50 (full-length human BTK) was < 100 nM and the IC50 [2] was 100 to 1000 nM.

`Cn1cc(-c2nc3c(-c4ccc(CN5Cc6cc(C7CC7)sc6C5=O)c(F)c4)ccnc3[nH]2)cn1` [Example 93, 2-Cyclopropyl-5-([2-fluoro-4-[2-(1-methyl-1H-pyrazol-4-yl)-3H-imidazo[4,5-b]pyridin-7-yl]phenyl]methyl)-4H,5H,6H-thieno[2,3-c]pyrrol-6-one] was tested, and the IC50 [1] was < 100 nM, the IC50 (full-length human BTK) was < 100 nM and the IC50 [2] was 100 to 1000 nM.

In the case of `Cn1cc(-c2nc3c(-c4ccc(C5(NC(=O)c6noc(C(C)(C)C)n6)CC5)cc4)ccnc3[nH]2)cn1` [Example 53, 5-tert-Butyl-N-(1-[4-[2-(1-methyl-1H-pyrazol-4-yl)-3H-imidazo[4,5-b]pyridin-7-yl]phenyl]cyclopropyl)-1,2,4-oxadiazole-3-carboxamide], the IC50 [1] is reported as < 100 nM, the IC50 (full-length human BTK) is reported as < 100 nM and the IC50 [2] is reported as < 100 nM.

For `Cn1cc(-c2nc3c(-c4cc(F)cc(N5CCOc6cc(C7CC7)cc(F)c6C5=O)c4CO)ccnc3[nH]2)cn1` [Example 37, 8-Cyclopropyl-6-fluoro-4-[5-fluoro-2-(hydroxymethyl)-3-[2-(1-methyl-1H-pyrazol-4-yl)-3H-imidazo [4,5-b]pyridin-7-yl]phenyl]-2,3,4,5-tetrahydro-1,4-benzoxazepin-5-one], the IC50 [1] was < 100 nM, the IC50 (full-length human BTK) was < 100 nM and the IC50 [2] was 100 to 1000 nM.

In the case of `CCn1cc(-c2nc3c(-c4ccc(CNC(=O)c5cc6c(s5)CCCC6)c(F)c4)ccnc3[nH]2)cn1` [Example 130, 4,5,6,7-Tetrahydro-benzo[b]thiophene-2-carboxylic acid 4-[2-(1-ethyl-1H-pyrazol-4-yl)-3H-imidazo[4,5-b]pyridin-7-yl]-2-fluoro-benzylamide], the IC50 [1] is reported as < 100 nM, the IC50 (full-length human BTK) is reported as < 100 nM and the IC50 [2] is reported as 100 to 1000 nM.

For `Cn1cc(-c2nc3c(-c4ccc(CNC(=O)c5nc(C(C)(C)C)no5)cc4CO)ccnc3[nH]2)cn1` [Example 105, 3-tert-Butyl-[1,2,4]oxadiazole-5-carboxylic acid 3-hydroxymethyl-4-[2-(1-methyl-1H-pyrazol-4-yl)-3H-imidazo[4,5-b]pyridin-7-yl]-benzylamide], the IC50 [1] was < 100 nM, the IC50 (full-length human BTK) was < 100 nM and the IC50 [2] was 1000 to 5000 nM.

With `O=C(NCc1ccc(-c2ccnc3[nH]c(-c4cnn(CCN5CCOCC5)c4)nc23)cc1F)c1nnc(C2CCOCC2)o1` [Example 122, 5-(Tetrahydro-pyran-4-yl)-[1,3,4]oxadiazole-2-carboxylic acid 2-fluoro-4-{2-[1-(2-morpholin-4-yl-ethyl)-1H-pyrazol-4-yl]-3H-imidazo[4,5-b]pyridin-7-yl}-benzylamide] the IC50 [1] was 100 to 1000 nM, the IC50 (full-length human BTK) was 100 to 1000 nM and the IC50 [2] was > 5000 nM.

In the case of `Cn1cc(-c2nc3c(-c4cccc(NC(=O)c5cc6c(s5)CCCC6)c4CO)ccnc3[nH]2)cn1` [Example 50, N-[2-(hydroxymethyl)-3-[2-(1-methyl-1H-pyrazol-4-yl)-3H-imidazo[4,5-b]pyridin-7-yl]phenyl]-4,5,6,7-tetrahydro-1-benzothiophene-2-carboxamide], the IC50 [1] is reported as < 100 nM, the IC50 (full-length human BTK) is reported as < 100 nM and the IC50 [2] is reported as 100 to 1000 nM.

With `COc1ccnc(-c2nc3c(-c4ccc(CNC(=O)c5noc(C(C)(C)C)n5)c(F)c4)ccnc3[nH]2)c1` [Example 75, 5-tert-Butyl-N-([2-fluoro-4-[2-(4-methoxypyridin-2-yl)-3H-imidazo[4,5-b]pyridin-7-yl]phenyl]methyl)-1,2,4-oxadiazole-3-carboxamide] the IC50 [1] was < 100 nM, the IC50 (full-length human BTK) was < 100 nM and the IC50 [2] was 100 to 1000 nM.

For `Cn1cc(-c2nc3c(-c4ccc(CNC(=O)c5ccc(C(C)(C)C)cc5)cc4)ccnc3[nH]2)cn1` [Example 110, 4-tert-Butyl-N-{4-[2-(1-methyl-1H-pyrazol-4-yl)-3H-imidazo[4,5-b]pyridin-7-yl]-benzyl}-benzamide], the IC50 [1] was < 100 nM, the IC50 (full-length human BTK) was < 100 nM and the IC50 [2] was 100 to 1000 nM.

`Cc1cc(CNC(=O)c2noc(C(C)(C)C)n2)c(F)cc1-c1ccnc2[nH]c(-c3cnn(C)c3)nc12` [Example 77, 5-tert-butyl-N-([2-fluoro-5-methyl-4-[2-(1-methyl-1H-pyrazol-4-yl)-3H-imidazo[4,5-b]pyridin-7-yl]phenyl]methyl)-1,2,4-oxadiazole-3-carboxamide] was tested, and the IC50 [1] was < 100 nM, the IC50 (full-length human BTK) was < 100 nM and the IC50 [2] was 1000 to 5000 nM.

For `Cn1cc(-c2nc3c(-c4ccc(C(C)(C)NC(=O)c5nnc(C(C)(C)C)o5)c(F)c4)ccnc3[nH]2)cn1` [Example 104, 5-tert-Butyl-[1,3,4]oxadiazole-2-carboxylic acid (1-{2-fluoro-4-[2-(1-methyl-1H-pyrazol-4-yl)-3H-imidazo[4,5-b]pyridin-7-yl]-phenyl}-1-methyl-ethyl)-amide], the IC50 [1] was < 100 nM, the IC50 (full-length human BTK) was < 100 nM and the IC50 [2] was 1000 to 5000 nM.

`CN1CCN(Cc2ccc(-c3nc4c(-c5ccc(CNC(=O)c6noc(C(C)(C)C)n6)c(F)c5)ccnc4[nH]3)cc2)CC1` [Example 71, 5-tert-Butyl-N-[[2-fluoro-4-(2-[4-[(4-methylpiperazin-1-yl)methyl]phenyl]-1H-imidazo[4,5-b]pyridin-7-yl)phenyl]methyl]-1,2,4-oxadiazole-3-carboxamide] was tested, and the IC50 [1] was < 100 nM, the IC50 (full-length human BTK) was < 100 nM and the IC50 [2] was < 100 nM.

For `Cn1cc(-c2nc3c(-c4ccc(CNC(=O)CCCC5CCCC5)c(F)c4)ccnc3[nH]2)cn1` [Example 16, 4-Cyclopentyl-N-{2-fluoro-4-[2-(1-methyl-1H-pyrazol-4-yl)-3H-imidazo[4,5-b]pyridin-7-yl]-benzyl}-butyramide], the IC50 [1] was < 100 nM, the IC50 (full-length human BTK) was < 100 nM and the IC50 [2] was > 5000 nM.

With `CC(C)(C)c1ccc(C(=O)NCc2ccc(-c3ccnc4[nH]c(-c5ccc(C6=CCNCC6)cc5)nc34)cc2F)cc1` [Example 66, 4-tert-Butyl-N-[(2-fluoro-4-[2-[4-(1,2,3,6-tetrahydropyridin-4-yl)phenyl]-3H-imidazo[4,5-b]pyridin-7-yl]phenyl)methyl]benzamide] the IC50 [1] was < 100 nM, the IC50 (full-length human BTK) was < 100 nM and the IC50 [2] was 100 to 1000 nM.

In the case of `CN(C)c1ccc(-c2nc3c(-c4ccc(CNC(=O)N5CC(OC(C)(C)C)C5)c(F)c4)ccnc3[nH]2)nc1` [Example 90, 3-(tert-Butoxy)-N-[(4-[2-[5-(dimethylamino)pyridin-2-yl]-3H-imidazo[4,5-b]pyridin-7-yl]-2-fluorophenyl)methyl]azetidine-1-carboxamide], the IC50 [1] is reported as 100 to 1000 nM, the IC50 (full-length human BTK) is reported as < 100 nM and the IC50 [2] is reported as 1000 to 5000 nM.

For `CC(C)(C)c1nc(C(=O)NCc2ccc(-c3ccnc4[nH]c(-c5cccc(OC(F)(F)F)c5)nc34)cc2F)no1` [Example 74, 5-tert-Butyl-N-[(2-fluoro-4-[2-[3-(trifluoromethoxy)phenyl]-3H-imidazo[4,5-b]pyridin-7-yl]phenyl)methyl]-1,2,4-oxadiazole-3-carboxamide; trifluoroacetic acid], the IC50 [1] was < 100 nM, the IC50 (full-length human BTK) was < 100 nM and the IC50 [2] was 100 to 1000 nM.

In the case of `CN1CCN(c2ccc(-c3nc4c(-c5ccc(CNC(=O)c6noc(C(C)(C)C)n6)c(F)c5)ccnc4[nH]3)nc2)CC1` [Example 79, 5-tert-Butyl-N-[(2-fluoro-4-[2-[5-(4-methylpiperazin-1-yl)pyridin-2-yl]-3H-imidazo[4,5-b]pyridin-7-yl]phenyl)methyl]-1,2,4-oxadiazole-3-carboxamide], the IC50 [1] is reported as < 100 nM, the IC50 (full-length human BTK) is reported as < 100 nM and the IC50 [2] is reported as < 100 nM.

`CC(C)(C)c1nc(C(=O)NCc2ccc(-c3ccnc4[nH]c(-c5ccc(C(O)CO)cn5)nc34)cc2F)no1` (stereo not drawn) [Example 76, 5-tert-Butyl-N-[(4-[2-[5-(1,2-dihydroxyethyl)pyridin-2-yl]-3H-imidazo[4,5-b]pyridin-7-yl]-2-fluorophenyl)methyl]-1,2,4-oxadiazole-3-carboxamide] was tested, and the IC50 [1] was < 100 nM, the IC50 (full-length human BTK) was < 100 nM and the IC50 [2] was < 100 nM.

With `CN(C)c1nc(C(=O)NCc2ccc(-c3ccnc4[nH]c(-c5cnn(C)c5)nc34)cc2F)no1` [Example 57, 5-(Dimethylamino)-N-(2-fluoro-4-(2-(1-methyl-1H-pyrazol-4-yl)-3H-imidazo[4,5-b]pyridin-7-yl)benzyl)-1,2,4-oxadiazole-3-carboxamide 2,2,2-trifluoroacetate] the IC50 [1] was < 100 nM, the IC50 (full-length human BTK) was < 100 nM and the IC50 [2] was 1000 to 5000 nM.

With `CC(C)(C)c1nc(C(=O)NCc2ccc(-c3ccnc4[nH]c(C5CC5)nc34)cc2F)no1` [Example 27, 5-tert-Butyl-[1,2,4]oxadiazole-3-carboxylic acid 4-(2-cyclopropyl-3H-imidazo[4,5-b]pyridin-7-yl)-2-fluoro-benzylamide] the IC50 [1] was < 100 nM, the IC50 (full-length human BTK) was < 100 nM and the IC50 [2] was 1000 to 5000 nM.
